The source made the active and inactive calls. No cut-off for these calls is given here.
What was measured:
[1] = AUC(0 to infinity) in Sprague-Dawley rat at 2 mg/kg, iv measured upto 12 hrs by UPLC-MS/ESI analysis; type: ADME, organism-based; parameters: dose 2 mg/kg, time < 12 hrs, route iv; details: in vivo
[2] = test system: A2780/Taxol; test: Antiproliferative activity against paclitaxel resistant human A2780/Taxol cells assessed as inhibition of cell proliferation incubated for 48 hrs by MTT assay; type: functional, cell-based
[3] = MRT (0 to infinity) in Sprague-Dawley rat at 20 mg/kg, po measured upto 12 hrs by UPLC-MS/ESI analysis; type: ADME, organism-based; details: in vivo
[4] = MRT(0 to t) in Sprague-Dawley rat at 2 mg/kg, iv measured upto 12 hrs by UPLC-MS/ESI analysis; type: ADME, organism-based; details: in vivo
[5] = AUC (0 to infinity) in Sprague-Dawley rat at 20 mg/kg, po measured upto 12 hrs by UPLC-MS/ESI analysis; type: ADME, organism-based; parameters: dose 20 mg/kg, time < 12 hrs, route po; details: in vivo
[6] = test system: HepG2; test: Induction of apoptosis in human HepG2 cells assessed as necrotic cells at 1 nM incubated for 48 hrs by Annexin V-FITC/PI staining based flow cytometric analysis (reference value: 0.443%); type: functional
[7] = Toxicity in C57 mouse implanted with mouse B16-F10 cells assessed as pathological changes in kidney at 5 mg/kg, ip administered every day for 14 days by H&E staining based microscopic analysis; type: organism-based; details: in vivo, 336 h, time 14 day
[8] = test system: HepG2; test: Induction of apoptosis in human HepG2 cells assessed as early apoptotic cells at 1 nM incubated for 48 hrs by Annexin V-FITC/PI staining based flow cytometric analysis (reference value: 7.01 %); type: functional
[9] = Acute toxicity in C57 mouse assessed as survival rate at 100 mg/kg, po administered daily for 14 days relative to control; type: organism-based; details: in vivo, time 14 day, read-out: Activity
[10] = test system: HepG2; test: Induction of apoptosis in human HepG2 cells assessed as necrotic cells at 0.5 nM incubated for 48 hrs by Annexin V-FITC/PI staining based flow cytometric analysis (reference value: 0.443%); type: functional
[11] = test system: HepG2; test: Antimigratory activity in human HepG2 cells assessed as reduction in recovery area at 5 nM incubated for 24 hrs by wound healing assay (reference value: 65.84%); type: functional; parameters: scale not given: the % may be the effect or the level left
[12] = Cytotoxicity against HUVEC cells assessed as inhibition of cell proliferation incubated for 24 hrs by MTT assay; type: toxicity, cell-based; details: human
[13] = test system: HepG2; test: Induction of apoptosis in human HepG2 cells assessed as viable cells at 1 nM incubated for 48 hrs by Annexin V-FITC/PI staining based flow cytometric analysis (reference value: 87.6%); type: functional; details: read-out: Activity
[14] = test system: HepG2; test: Cell cycle arrest in human HepG2 cells assessed as accumulation of cells at G2 phase at 1 nM incubated for 48 hrs by RNaseA/PI staining based flow cytometric analysis (reference value: 17.37%); type: functional
[15] = Clearance in Sprague-Dawley rat at 20 mg/kg, po measured upto 12 hrs by UPLC-MS/ESI analysis; type: ADME, organism-based; details: in vivo
[16] = Antiproliferative activity against paclitaxel resistant human A549/TxR cells assessed as inhibition of cell proliferation incubated for 48 hrs by MTT assay; type: functional, cell-based
[17] = test system: HepG2; test: Antimigratory activity in human HepG2 cells assessed as reduction in recovery area at 1 nM incubated for 24 hrs by wound healing assay (reference value: 65.84%); type: functional; parameters: scale not given: the % may be the effect or the level left
[18] = AUC(0 to t) in Sprague-Dawley rat at 2 mg/kg, iv measured upto 12 hrs by UPLC-MS/ESI analysis; type: ADME, organism-based; parameters: time < 12 hrs, dose 2 mg/kg, route iv; details: in vivo
[19] = test system: HepG2; test: Cell cycle arrest in human HepG2 cells assessed as accumulation of cells at G2 phase at 5 nM incubated for 48 hrs by RNaseA/PI staining based flow cytometric analysis (reference value: 17.37%); type: functional
[20] = test system: HepG2; test: Induction of apoptosis in human HepG2 cells assessed as viable cells at 0.5 nM incubated for 48 hrs by Annexin V-FITC/PI staining based flow cytometric analysis (reference value: 87.6%); type: functional; details: read-out: Activity
[21] = test system: HepG2; test: Cell cycle arrest in human HepG2 cells assessed as accumulation of cells at G1 phase at 0.5 nM incubated for 48 hrs by RNaseA/PI staining based flow cytometric analysis (reference value: 56.11%); type: functional
[22] = Tmax in Sprague-Dawley rat at 20 mg/kg, po measured upto 12 hrs by UPLC-MS/ESI analysis; type: ADME, organism-based; details: in vivo
[23] = test system: HepG2; test: Induction of apoptosis in human HepG2 cells assessed as late apoptotic cells at 1 nM incubated for 48 hrs by Annexin V-FITC/PI staining based flow cytometric analysis (reference value: 4.96 %); type: functional
[24] = test system: HepG2; test: Cell cycle arrest in human HepG2 cells assessed as accumulation of cells at G2 phase at 0.5 nM incubated for 48 hrs by RNaseA/PI staining based flow cytometric analysis (reference value: 17.37%); type: functional
[25] = test system: HepG2; test: Induction of apoptosis in human HepG2 cells assessed as late apoptotic cells at 5 nM incubated for 48 hrs by Annexin V-FITC/PI staining based flow cytometric analysis (reference value: 4.96 %); type: functional
[26] = test system: B16-F10; test: Antitumor immunity in C57 mouse implanted with mouse B16-F10 cells assessed as increase in CD3+ CD4+ helper T cells in tumor at 5 mg/kg, ip administered every day for 14 days by flow cytometric analysis (reference value: 0.332%); type: functional; details: time 14 day
[27] = Half-life in Sprague-Dawley rat at 20 mg/kg, po measured upto 12 hrs by UPLC-MS/ESI analysis; type: ADME, organism-based; details: in vivo
[28] = MRT(0 to infinity) in Sprague-Dawley rat at 2 mg/kg, iv measured upto 12 hrs by UPLC-MS/ESI analysis; type: ADME, organism-based; details: in vivo
[29] = Acute toxicity in C57 mouse assessed as lethal dose administered orally daily for 14 days; details: in vivo, route po, time 14 day
[30] = test system: B16-F10; test: Antitumor activity against mouse B16-F10 cells implanted in C57 mouse assessed as reduction in tumor weight at 2.5 mg/kg, ip administered every day for 14 days in the presence of NP19; type: functional, organism-based; details: time 14.0 day
[31] = test system: B16-F10; test: Antitumor activity against mouse B16-F10 cells implanted in C57 mouse assessed as tumor growth inhibition at 5 mg/kg, ip administered every day for 14 days relative to control; type: functional; details: B16-F10, 336 h, time 14 day, read-out: TGI
[32] = test system: HepG2; test: Cell cycle arrest in human HepG2 cells assessed as accumulation of cells at G1 phase at 5 nM incubated for 48 hrs by RNaseA/PI staining based flow cytometric analysis (reference value: 56.11%); type: functional
[33] = test system: B16-F10; test: Antitumor activity against mouse B16-F10 cells implanted in C57 mouse assessed as tumor growth inhibition at 2.5 mg/kg, ip administered every day for 14 days in the presence of NP19 relative to control; type: functional; details: B16-F10, 336 h, time 14 day, read-out: TGI
[34] = Acute toxicity in C57 mouse assessed as survival rate at 64 mg/kg, po administered daily for 14 days relative to control; type: organism-based; details: in vivo, time 14 day, read-out: Activity
[35] = test system: A2780S; test: Antiproliferative activity against parental human A2780S cells assessed as inhibition of cell proliferation incubated for 48 hrs by MTT assay; type: functional, cell-based

Structure (SMILES): COc1cc(-c2nccc3[nH]c(-c4cccc5c4ccn5C)nc23)cc(OC)c1OC
- AUC(0-inf) [1]: 3080 ng·h/mL
- IC50 [2]: 5.1 nM
- MRT inf [3]: 3.24 h
- MRT last at 12 h [4]: 1.79 h
- AUC(0-inf) [5]: 3380 ng·h/mL
- Activity [6]: 0.189%
- Activity [7]: Non-Toxic
- Activity [8]: 31.3%
- survival at 336 h [9]: 0%
- Activity [10]: 0.428%
- Activity [11]: 22.16%
- IC50 at 24 h [12]: 62.1 nM
- viability at 0.001 µM [13]: 59.6%
- Activity [14]: 36.46%
- CL/F [15]: 107 mL/min/kg
- IC50 [16]: 15.3 nM
- Activity [17]: 32.2%
- AUC(0-t) at 12 h [18]: 3060 ng·h/mL
- Activity [19]: 55.89%
- viability at 0.0005 µM [20]: 84.6%
- Activity [21]: 49.61%
- Tmax [22]: 0.92 h
- Activity [23]: 8.87%
- Activity [24]: 20.73%
- Activity [25]: 5.74%
- Activity [26]: 0.954%
- half-life [27]: 1.83 h
- MRT inf [28]: 1.86 h
- LD50 at 336 h [29]: 66.9 mg/kg
- Activity [30]: Active
- inhibition in vivo at 5 mg/kg [31]: 63%
- Activity [32]: 20.19%
- inhibition in vivo at 2.5 mg/kg [33]: 77.8%
- survival at 336 h [34]: 60%
- IC50 [35]: 1.6 nM

Source: ChEMBL document CHEMBL5338766, “X-ray Crystal Structure-Guided Discovery of Novel Indole Analogues as Colchicine-Binding Site Tubulin Inhibitors with Immune-Potentiating and Antitumor Effects against Melanoma” (J Med Chem, 2023)
